Measured values reported in patent publication US9937217B2, “Method of inhibiting ABCG2 and related treatments” (The United States of America, as represented by the …, priority 2007, dated 2018).
Values joined by “and” are separate entries in the source; they are usually repeats but may differ in a detail not shown here. Identical values can stand only once. Like-named read-outs stand apart in the source and are kept apart here.

Assays:
[1] = biological target: T1, ABCG2 (Homo sapiens, UniProt Q9UNQ0); conditions: NCI-H460/MX20 cells; Henrich et al., 2006; read-out: Pheophorbide a IC50 for FTC; cited from earlier work
T1 sequence (Q9UNQ0 1-655): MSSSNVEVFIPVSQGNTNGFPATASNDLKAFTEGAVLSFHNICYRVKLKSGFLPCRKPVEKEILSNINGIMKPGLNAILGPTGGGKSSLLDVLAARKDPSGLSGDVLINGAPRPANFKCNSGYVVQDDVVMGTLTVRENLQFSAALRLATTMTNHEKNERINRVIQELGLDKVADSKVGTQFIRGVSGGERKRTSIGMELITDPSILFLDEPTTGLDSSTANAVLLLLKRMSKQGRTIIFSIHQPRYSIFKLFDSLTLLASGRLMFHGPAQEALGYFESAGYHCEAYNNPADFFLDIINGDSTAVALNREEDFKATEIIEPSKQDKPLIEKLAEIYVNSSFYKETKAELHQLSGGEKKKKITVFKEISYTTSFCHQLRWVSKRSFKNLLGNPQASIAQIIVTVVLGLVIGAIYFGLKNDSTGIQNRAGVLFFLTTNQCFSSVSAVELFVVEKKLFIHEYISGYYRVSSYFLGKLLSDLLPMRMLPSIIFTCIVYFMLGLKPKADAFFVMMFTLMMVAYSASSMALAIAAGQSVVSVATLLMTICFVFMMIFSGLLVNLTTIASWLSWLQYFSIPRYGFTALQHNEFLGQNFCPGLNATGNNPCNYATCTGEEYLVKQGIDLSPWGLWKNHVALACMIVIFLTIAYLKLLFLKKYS

[2] = biological target: T1, ABCG2; assay: Photoaffinity labeling of ABCG2 with [125I]-IAAP in MCF-7 FLV1000 membranes; format: binding; conditions: 20 μM compound; for activity at 10 min, 20 µM: human, crude membranes of MCF-7 FLV1000 cells expressing ABCG2, pH 7.5, probe [125I]-IAAP, 3-6 nM (2200 Ci/mmole), read-out: Blocking of 125I-IAAP binding: % of control binding
Method: ABCG2 expressed in MCF-7 FLV1000 cells is photo-labeled with [^125I]-IAAP as described previously (Shukla et al., Biochemistry, 45: 8940-51 (2006)). Briefly, crude membranes (1 mg protein/me of MCF-7 FLV1000 cells are incubated with 20 μM of the indicated compound for 10 min at room temperature in 50 mM Tris-HCl, pH 7.5. 3-6 nM [^125I]-IAAP (2200 Ci/mmole) (PerkinElmer Life Sciences, Wellesley, Mass.) is added, and the samples are incubated for an additional 5 min under subdued light. The samples are then exposed to ultraviolet (UV, 365 nm) light for 10 min, and the labeled ABCG2 is immunoprecipitated using BXP-21 antibody. The radioactivity incorporated into the ABCG2 band is quantified using the STORM 860 PhosphorImager system (Molecular Dynamics, Sunnyvale, Calif.) and ImageQuaNT software (Molecular Dynamics).

[3] = biological target: T1, ABCG2; format: cell-based; conditions: compound, ABCG2-transfected HEK293
Method: At least 10000 events are collected. Dead cells are eliminated based on propidium iodide exclusion.
Five compounds are examined for their ability to increase surface staining of the 5D3 antibody.
The 5D3 shift assay is performed as described by Ozvegy-Laczka et al. with minor modifications. […] Cells are subsequently washed and incubated with APC-labeled goat anti-mouse secondary antibody (1:35) for 30 min after which the cells are washed and analyzed.

[4] = system: NCI-H460/MX20 cells; assay: Sensitization of ABCG2-overexpressing cells to killing by mitoxantrone (XTT assay); format: cell-based, human; conditions: for MX sensitization: % NCI-H460/MX20 cell survival in the presence of compound and mitoxantrone: 10 μM compound
Method: After removal of mitoxantrone, cells are further grown in the same medium without mitoxantrone for 5-30 days. These cells are designated NCI-H460/MX20. Parental cells (low ABCG2 expression) (Robey et al., vide supra) are maintained in the same medium without mitoxantrone. […] MRP1-transfected HEK293 cells are maintained in 5 μM etoposide.
Final DMSO concentration is 0.2% (v/v).

[5] = biological target: T1, ABCG2; assay: Pheophorbide a (PhA) accumulation screening assay; format: cell-based
Method: (§1) To prepare the cell culture, NCI-H460 human lung non-small-cell carcinoma cells (National Cancer Institute, Frederick, Md.) are selected for over-expression of ABCG2 by maintenance in RPMI1640/10% FBS supplemented with 20 nM mitoxantrone (Robey et al., Biochim. Biophys. Acta, 1512: 171-82 (2001)). After removal of mitoxantrone, cells are further grown in the same medium without mitoxantrone for 5-30 days. These cells are designated NCI-H460/MX20. Parental cells (low ABCG2 expression) (Robey et al., vide supra) are maintained in the same medium without mitoxantrone. ABCG2-transfected or MDR1-transfected (i.e. Pgp-expressing) HEK293 cells are maintained in 2 mg/ml G418 as previously described (Robey et al., Br. J. Cancer, 89: 1971-8 (2003)). MRP1-transfected HEK293 cells are maintained in 5 μM etoposide. MCF-7 FLV1000 cells are maintained in Richter's medium with 10% FCS and Pen/strep with 1000 nM flavopiridol (Robey et al., Clin. Cancer Res., 7: 145-52 (2001)).
Accumulation of pheophorbide a, a fluorescent ABCG2 substrate (Jonker et al., Proc. Natl. Acad. Sci. USA, 99: 15649-54 (2002) and Robey et al., Cancer Res., 64: 1242-6 (2004)), formed the basis of the assay for inhibitors of ABCG2 activity (Henrich et al., J. Biomol. Screen, 11: 176-83 (2006)). Briefly, NCI-H460/MX20 cells are transferred to black wall, clear bottom 384-well polylysine-coated assay plates (Corning, Corning, N.Y.) and allowed to attach for several hours. Pheophorbide a (1 μM final concentration) is added immediately followed by compounds or vehicle (DMSO/PBS) control and incubated an additional 18 h. After removal of medium and washing with PBS containing Ca^2+ and Mg^2+, fluorescence intensity is read on a Tecan Safire fluorescence plate reader in bottom read mode, 395 nm excitation, 670 nm emission. Each plate has control wells containing 10 μM (final concentration) FTC. Data are normalized to FTC and reported as % of FTC fluorescence.

[6] = biological target: T1, ABCG2; assay: BODIPY-prazosin efflux, ABCG2-transfected HEK293 cells (flow cytometry); conditions: 10 μM compound
Method: (§2) APC fluorescence is measured with a 635 nm read diode laser and 561 nm longpass filter. At least 10000 events are collected. Dead cells are eliminated based on propidium iodide exclusion.
(§3) Cells are then washed and incubated in substrate-free medium continuing with or without inhibitor for 1 h.

[7] = biological target: Pgp (Homo sapiens, UniProt P08183)
Chain of Pgp (P08183 whole entry): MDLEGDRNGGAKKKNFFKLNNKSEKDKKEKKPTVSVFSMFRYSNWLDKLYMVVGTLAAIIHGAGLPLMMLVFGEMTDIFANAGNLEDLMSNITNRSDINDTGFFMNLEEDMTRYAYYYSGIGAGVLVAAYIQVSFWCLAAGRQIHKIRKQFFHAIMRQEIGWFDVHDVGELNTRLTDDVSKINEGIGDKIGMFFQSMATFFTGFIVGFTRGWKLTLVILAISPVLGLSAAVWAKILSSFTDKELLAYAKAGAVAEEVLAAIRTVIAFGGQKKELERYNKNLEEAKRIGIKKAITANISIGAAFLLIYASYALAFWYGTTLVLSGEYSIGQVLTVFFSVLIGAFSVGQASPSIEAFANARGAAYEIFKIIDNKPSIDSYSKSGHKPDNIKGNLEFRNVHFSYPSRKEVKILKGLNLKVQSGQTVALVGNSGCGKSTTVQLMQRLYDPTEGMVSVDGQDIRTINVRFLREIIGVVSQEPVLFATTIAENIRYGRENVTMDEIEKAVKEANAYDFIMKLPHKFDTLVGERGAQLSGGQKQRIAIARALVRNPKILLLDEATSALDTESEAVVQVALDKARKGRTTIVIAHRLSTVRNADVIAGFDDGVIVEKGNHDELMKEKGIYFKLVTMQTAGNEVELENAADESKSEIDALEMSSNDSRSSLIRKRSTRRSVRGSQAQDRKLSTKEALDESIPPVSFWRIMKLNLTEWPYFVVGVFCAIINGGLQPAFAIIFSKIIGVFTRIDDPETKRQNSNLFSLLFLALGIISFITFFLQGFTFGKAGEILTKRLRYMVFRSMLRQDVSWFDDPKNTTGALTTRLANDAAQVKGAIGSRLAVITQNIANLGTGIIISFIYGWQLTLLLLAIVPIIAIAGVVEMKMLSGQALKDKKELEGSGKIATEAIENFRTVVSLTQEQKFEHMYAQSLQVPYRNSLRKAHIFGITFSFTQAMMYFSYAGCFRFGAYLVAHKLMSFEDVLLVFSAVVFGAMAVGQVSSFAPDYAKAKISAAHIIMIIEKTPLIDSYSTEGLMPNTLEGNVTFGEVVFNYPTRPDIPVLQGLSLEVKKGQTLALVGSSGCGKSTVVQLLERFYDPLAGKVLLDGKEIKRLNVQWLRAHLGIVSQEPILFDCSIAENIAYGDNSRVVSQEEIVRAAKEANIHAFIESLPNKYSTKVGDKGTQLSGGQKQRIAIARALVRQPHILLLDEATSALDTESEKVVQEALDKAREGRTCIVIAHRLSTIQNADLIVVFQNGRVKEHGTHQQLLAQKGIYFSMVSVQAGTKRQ
Method: as §2, §3

[8] = biological target: T2, MRP1 (Homo sapiens, UniProt P33527); assay: Calcein efflux, MRP1-transfected HEK293 cells (flow cytometry); format: cell-based; conditions: 10 μM compound
T2 construct: expressed in transfected cells; host or cells: HEK293
T2 sequence (P33527 whole entry): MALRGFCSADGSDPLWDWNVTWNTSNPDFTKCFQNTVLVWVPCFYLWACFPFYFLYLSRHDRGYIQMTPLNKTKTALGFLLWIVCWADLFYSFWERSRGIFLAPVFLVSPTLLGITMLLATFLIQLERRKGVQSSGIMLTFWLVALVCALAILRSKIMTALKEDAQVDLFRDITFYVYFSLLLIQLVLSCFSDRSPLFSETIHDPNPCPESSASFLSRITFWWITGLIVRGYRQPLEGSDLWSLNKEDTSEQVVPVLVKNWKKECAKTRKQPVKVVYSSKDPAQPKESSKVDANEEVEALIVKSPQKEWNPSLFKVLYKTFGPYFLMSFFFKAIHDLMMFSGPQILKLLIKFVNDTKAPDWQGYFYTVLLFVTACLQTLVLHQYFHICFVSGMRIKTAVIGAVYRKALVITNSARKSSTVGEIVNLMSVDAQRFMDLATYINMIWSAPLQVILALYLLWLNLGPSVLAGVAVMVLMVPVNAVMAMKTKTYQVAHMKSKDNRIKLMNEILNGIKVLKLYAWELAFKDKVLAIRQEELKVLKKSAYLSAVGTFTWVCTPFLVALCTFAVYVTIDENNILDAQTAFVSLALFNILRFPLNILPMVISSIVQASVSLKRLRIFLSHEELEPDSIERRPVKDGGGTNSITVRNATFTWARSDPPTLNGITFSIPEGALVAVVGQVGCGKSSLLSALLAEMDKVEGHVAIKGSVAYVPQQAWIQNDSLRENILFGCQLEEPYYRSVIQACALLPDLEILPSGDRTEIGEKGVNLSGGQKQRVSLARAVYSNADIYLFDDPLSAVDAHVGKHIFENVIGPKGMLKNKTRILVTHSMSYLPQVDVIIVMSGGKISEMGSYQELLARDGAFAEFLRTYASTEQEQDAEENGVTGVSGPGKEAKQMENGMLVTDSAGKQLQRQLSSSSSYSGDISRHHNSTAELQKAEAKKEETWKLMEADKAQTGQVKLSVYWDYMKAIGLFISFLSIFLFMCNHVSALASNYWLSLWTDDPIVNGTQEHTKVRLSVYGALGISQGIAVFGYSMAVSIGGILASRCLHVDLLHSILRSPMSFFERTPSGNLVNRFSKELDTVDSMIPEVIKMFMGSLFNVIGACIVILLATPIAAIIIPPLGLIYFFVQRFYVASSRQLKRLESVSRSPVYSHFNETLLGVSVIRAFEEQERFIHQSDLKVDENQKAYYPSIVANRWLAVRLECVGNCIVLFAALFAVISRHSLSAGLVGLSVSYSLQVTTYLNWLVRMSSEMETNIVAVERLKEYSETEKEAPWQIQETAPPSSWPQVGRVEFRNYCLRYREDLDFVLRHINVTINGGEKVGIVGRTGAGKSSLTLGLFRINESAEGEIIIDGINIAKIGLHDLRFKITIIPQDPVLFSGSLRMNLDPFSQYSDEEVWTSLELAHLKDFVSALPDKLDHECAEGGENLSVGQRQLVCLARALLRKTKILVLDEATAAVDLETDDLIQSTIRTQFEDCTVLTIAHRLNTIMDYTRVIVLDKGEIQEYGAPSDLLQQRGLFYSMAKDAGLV
Method: as §2, §3

[9] = system: NCI-H460 cells; assay: Mitoxantrone / compound cytotoxicity in parental cells (XTT assay); format: cell-based; conditions: Homo sapiens, 48 h; unselected NCI-H460 cells, 30 μM mitoxantrone, 2 days, (sd); read-out: Cell numbers, % of control (vehicle), mitoxantrone alone
Method: as §1
The ability of compounds to sensitize NCI-H460/MX20 cells to killing by mitoxantrone is assessed as described in Henrich et al. (J. Biomol. Screen, 11: 176-83 (2006)). ABCG2 over-expressing cells or parental cells are treated with mitoxantrone in the presence or absence of 10 μM compound (or 1 μM FTC) and cell numbers assessed after 2 d by an XTT assay (Scudiero et al., Cancer Res., 48: 4827-33 (1988)). […]

[10] = NCI-H460/MX20 cells, PhA accumulation, read-out: Pheophorbide a IC50

| SMILES | IC50 [1] [µM] | Blocking of 125I-IAAP binding: % of control binding [2] [%] | 5D3 staining: treated/control ratio [3] | MX sensitization: % NCI-H460/MX20 cell survival in the presence of FTC and mitoxantrone ([4]; 1 μM FTC, 30 μM mitoxantrone, 2 d) | Pheophorbide a total, % of FTC response ([5]; 10 μM compound, NCI-H460/MX20 cells, normalized to 10 μM FTC) [%] | BODIPY-prazosin efflux: treated/control ratio [6] | activity at 10 min, 20 µM [2] [%] | MX sensitization: % NCI-H460/MX20 cell survival in the presence of compound and mitoxantrone ([4]; 30 μM mitoxantrone, 2 d) [%] | Pgp inhibition, rhodamine efflux: treated/control ratio ([7]; human, 10 µM) | MRP1 inhibition, calcein efflux: treated/control ratio [8] | IC50 [5] [µM] | Pheophorbide a total, % of FTC response ([5]; human, 18 h, 10 µM) [%] | IC50 [5, 10] [µM] | activity at 30 µM [9] [%] | Cell number, % of control, mitoxantrone alone ([4]; NCI-H460/MX20 cells, mitoxantrone treatment, (sd)) [%] | Pgp inhibition, rhodamine efflux: treated/control ratio ([7]; valspodar 3 μg/mL, positive control) |
| --- | --- | --- | --- | --- | --- | --- | --- | --- | --- | --- | --- | --- | --- | --- | --- | --- |
| COc1ccc2c3c([nH]c2c1)[C@H](C=C(C)C)N1C(=O)[C@@H]2CCCN2C(=O)[C@@H]1C3 [FTC, fumitremorgin C, reference compound] | 0.8 | 32.7 | 3.7 | 24.5±1.5% and 24.5% | 100 | 3.5 |  |  |  |  |  |  |  |  |  |  |
| Cn1ncc2c(Nc3cccc(Cl)c3)nc(Nc3cccc(Cl)c3)nc21 [NSC11668] |  |  | 4.0 |  |  | 5.9 | 24.6 | 21.9 | 0.73 | 1.2 | 4.5 | 84.1 |  |  |  |  |
| Cn1ncc2c(NCCc3ccccc3)nc(Cl)nc21 [NSC19139] |  |  | 3.6 |  |  | 3.5 | 33.5 | 30.0 | 0.77 | 1.3 |  | 76.6 | 2.6 |  |  |  |
| O=C(O)c1ccc(/C=N/N=C2c3ccccc3-c3ccccc32)cc1 [NSC120688] |  |  | 3.7 |  |  | 2.0 | 19.1 | 20.9 | 0.84 | 0.81 |  | 67.2 | 4.3 |  |  |  |
| COc1cc2c[n+](C)c3c4cc(OC)c(OC)cc4ccc3c2cc1OC [NSC168201] |  |  | 3.7 |  |  | 2.6 | 34.2 | 21.2 | 0.64 | 0.81 |  | 104.5 | 3.9 |  |  |  |
| Cc1cc(O)nc2cc3oc4ccccc4c3cc12 [NSC375985] |  |  | 3.2 |  |  | 3.6 | 48.7 | 27.6 | 0.84 | 1.8 | 3.7 | 63.8 |  |  |  |  |
| O=C1c2c(O)ccc(O)c2C(=O)c2c(NCCNCCO)ccc(NCCNCCO)c21 [mitoxantrone, reference compound] |  |  |  |  |  |  |  |  |  |  |  |  |  | 21.6 ± 1.6 | 56.1±2.1 |  |
| C/C=C/C[C@@H](C)C(=O)[C@H]1C(=O)N[C@@H](C(C)C)C(=O)N(C)CC(=O)N(C)[C@@H](CC(C)C)C(=O)N[C@@H](C(C)C)C(=O)N(C)[C@@H](CC(C)C)C(=O)N[C@@H](C)C(=O)N[C@H](C)C(=O)N(C)[C@@H](CC(C)C)C(=O)N(C)[C@@H](CC(C)C)C(=O)N(C)[C@@H](C(C)C)C(=O)N1C [valspodar, reference compound] |  |  |  |  |  |  |  |  |  |  |  |  |  |  |  | 14.9 |
